According to patent US8192962B2, “Processes for detecting toxic substances” (Daikin Industries, Ltd., priority 2001, dated 2012):

Tested on: Stress protein genes
Experiment: DNA chip mRNA expression in yeast, stress protein genes (Table 6)
Type: cell-based, Saccharomyces cerevisiae S288C
Protocol: Yeast (Saccharomyces cerevisiae S288C (α SUC2mal mel gap2 CUP1)) were incubated at 25° C. on YPD medium (yeast extract 1%, polypepton 2%, glucose 2%). One of toxic chemical substances was added to the cells at logarithmic growth phase, and the cells were further incubated for two hours. Cells were cultured without any chemical substance in the same condition, and were used as control. Concentrations of the chemical substances were defined to inhibit the growth of the yeast but not lead to death.
After completion of the incubation, the culture was centrifuged to collect the cells. To the cells, sodium acetate buffer (50 mM sodium acetate, 10 mM EDTA, 1% SDS) was added, and the mixture was shaken at 65° C. for five minutes, followed by returning to room temperature, and obtaining the supernatant, of which the procedures were repeated two times. To the supernatant, ½ amount of a solution of phenol/chloroform was added, and the mixture was centrifuged to give a supernatant, which was added with an equal amount of chloroform, and the mixture was centrifuged to give a supernatant. To the supernatant, an equal amount of isopropanol containing 0.3 M sodium acetate was added, and the mixture was allowed to stand at room temperature for 30 minutes, after which the mixture was centrifuged to give a sediment of the whole RNAs. Seventy % ethanol was added to the sediment, and the mixture was again centrifuged to give a sediment, which was then dried and dissolved in water. mRNA was isolated from the whole RNAs as followings. In view of the fact that a poly A chain is attached to the 3′ terminus of mRNA, a polynucleotide having a poly T structure which was immobilized on the surface of latex beads was used to trap the mRNA, and then the mRNA was washed and eluted with spine column (Oligotex-dT30<Super>mRNA Purification Kit, Takara). Reverse transcription of the mRNA was conducted with a reverse transcriptase (Super Script II Reverse Transcriptase; catalogue No. 18064-014, GibcoBRL) using fluorescence-labeled nucleotides to give cDNAs that were introduced with Cy3-dUTP or Cy5-dUTP during the reverse transcription.
The labeled cDNAs were dissolved in TE buffer (10mM Tris-HCl/1 mM EDTA, pH8.0), and the solution was dropped on the DNA chip containing the whole genes of yeast (DNA Chip Research Inc. Japan) so that the cDNAs were hybridized on the DNA chip at 65° C. for over 12 hours. The fluoresces intensity of the DNA chip was read with a scanner, and the ratio relative to the fluorescence intensity resulting from the absence of chemical substance was estimated as the following, which is shown in Tables 1 to 9: […]

## manganese ethylenebis(dithiocarbamate) [(8)]
Yeast gene YAL005C
  The level of expressed mRNA in the presence of chemical substance/The level of expressed mRNA in the absence of chemical substance: 0.9
Yeast gene YAL015C
  The level of expressed mRNA in the presence of chemical substance/The level of expressed mRNA in the absence of chemical substance: 1.1
Yeast gene YBL075C
  The level of expressed mRNA in the presence of chemical substance/The level of expressed mRNA in the absence of chemical substance: 0.8
Yeast gene YBL093C
  The level of expressed mRNA in the presence of chemical substance/The level of expressed mRNA in the absence of chemical substance: 1.6
Yeast gene YBR044C
  The level of expressed mRNA in the presence of chemical substance/The level of expressed mRNA in the absence of chemical substance: 1.1
Yeast gene YBR054W
  The level of expressed mRNA in the presence of chemical substance/The level of expressed mRNA in the absence of chemical substance: 2.1
Yeast gene YBR067C
  The level of expressed mRNA in the presence of chemical substance/The level of expressed mRNA in the absence of chemical substance: 1.1
Yeast gene YBR072W
  The level of expressed mRNA in the presence of chemical substance/The level of expressed mRNA in the absence of chemical substance: 2.1
Yeast gene YBR126C
  The level of expressed mRNA in the presence of chemical substance/The level of expressed mRNA in the absence of chemical substance: 0.6
Yeast gene YBR169C
  The level of expressed mRNA in the presence of chemical substance/The level of expressed mRNA in the absence of chemical substance: 0.9
Yeast gene YCL035C
  The level of expressed mRNA in the presence of chemical substance/The level of expressed mRNA in the absence of chemical substance: 1.4
Yeast gene YCR021C
  The level of expressed mRNA in the presence of chemical substance/The level of expressed mRNA in the absence of chemical substance: 0.8
Yeast gene YCR060W
  The level of expressed mRNA in the presence of chemical substance/The level of expressed mRNA in the absence of chemical substance: 1.2
Yeast gene YCR083W
  The level of expressed mRNA in the presence of chemical substance/The level of expressed mRNA in the absence of chemical substance: 1.5
Yeast gene YDL022W
  The level of expressed mRNA in the presence of chemical substance/The level of expressed mRNA in the absence of chemical substance: 0.8
Yeast gene YDL025C
  The level of expressed mRNA in the presence of chemical substance/The level of expressed mRNA in the absence of chemical substance: 1.1
Yeast gene YDR033W
  The level of expressed mRNA in the presence of chemical substance/The level of expressed mRNA in the absence of chemical substance: 1.0
Yeast gene YDR077W
  The level of expressed mRNA in the presence of chemical substance/The level of expressed mRNA in the absence of chemical substance: 0.8
Yeast gene YDR098C
  The level of expressed mRNA in the presence of chemical substance/The level of expressed mRNA in the absence of chemical substance: 1.2
Yeast gene YDR155C
  The level of expressed mRNA in the presence of chemical substance/The level of expressed mRNA in the absence of chemical substance: 1.4
Yeast gene YDR258C
  The level of expressed mRNA in the presence of chemical substance/The level of expressed mRNA in the absence of chemical substance: 1.9
Yeast gene YDR293C
  The level of expressed mRNA in the presence of chemical substance/The level of expressed mRNA in the absence of chemical substance: 0.6
Yeast gene YDR436W
  The level of expressed mRNA in the presence of chemical substance/The level of expressed mRNA in the absence of chemical substance: 0.9
Yeast gene YDR513W
  The level of expressed mRNA in the presence of chemical substance/The level of expressed mRNA in the absence of chemical substance: 1.6
Yeast gene YDR519W
  The level of expressed mRNA in the presence of chemical substance/The level of expressed mRNA in the absence of chemical substance: 1.4
Yeast gene YEL030W
  The level of expressed mRNA in the presence of chemical substance/The level of expressed mRNA in the absence of chemical substance: 0.7
Yeast gene YEL039C
  The level of expressed mRNA in the presence of chemical substance/The level of expressed mRNA in the absence of chemical substance: 1.1
Yeast gene YER042W
  The level of expressed mRNA in the presence of chemical substance/The level of expressed mRNA in the absence of chemical substance: 1.7
Yeast gene YER057C
  The level of expressed mRNA in the presence of chemical substance/The level of expressed mRNA in the absence of chemical substance: 1.0
Yeast gene YER103W
  The level of expressed mRNA in the presence of chemical substance/The level of expressed mRNA in the absence of chemical substance: 0.9
Yeast gene YER125W
  The level of expressed mRNA in the presence of chemical substance/The level of expressed mRNA in the absence of chemical substance: 0.7
Yeast gene YFL014W
  The level of expressed mRNA in the presence of chemical substance/The level of expressed mRNA in the absence of chemical substance: 3.4
Yeast gene YFL016C
  The level of expressed mRNA in the presence of chemical substance/The level of expressed mRNA in the absence of chemical substance: 0.7
Yeast gene YFL020C
  The level of expressed mRNA in the presence of chemical substance/The level of expressed mRNA in the absence of chemical substance: 0.7
Yeast gene YFR052W
  The level of expressed mRNA in the presence of chemical substance/The level of expressed mRNA in the absence of chemical substance: 1.5
Yeast gene YGL073W
  The level of expressed mRNA in the presence of chemical substance/The level of expressed mRNA in the absence of chemical substance: 0.8
Yeast gene YGL115W
  The level of expressed mRNA in the presence of chemical substance/The level of expressed mRNA in the absence of chemical substance: 1.0
Yeast gene YGL181W
  The level of expressed mRNA in the presence of chemical substance/The level of expressed mRNA in the absence of chemical substance: 1.2
Yeast gene YGR088W
  The level of expressed mRNA in the presence of chemical substance/The level of expressed mRNA in the absence of chemical substance: 0.8
Yeast gene YHL028W
  The level of expressed mRNA in the presence of chemical substance/The level of expressed mRNA in the absence of chemical substance: 0.4
Yeast gene YHL046C
  The level of expressed mRNA in the presence of chemical substance/The level of expressed mRNA in the absence of chemical substance: 1.0
Yeast gene YHR030C
  The level of expressed mRNA in the presence of chemical substance/The level of expressed mRNA in the absence of chemical substance: 1.5
Yeast gene YHR057C
  The level of expressed mRNA in the presence of chemical substance/The level of expressed mRNA in the absence of chemical substance: 1.0
Yeast gene YHR104W
  The level of expressed mRNA in the presence of chemical substance/The level of expressed mRNA in the absence of chemical substance: 1.1
Yeast gene YIL011W
  The level of expressed mRNA in the presence of chemical substance/The level of expressed mRNA in the absence of chemical substance: 0.7
